Laboratory results: patent US4952598A, “3-phenyl indolinone derivatives, processes for their preparation, medicaments containing them, and their use” (Hoechst Aktiengesellschaft, priority 1985, dated 1990)
Where a name gives a salt, the structure may show the parent alone.

Target: calcium channels
Test: 3H-nitrendipine binding (nitrendipine displacement) test
Details: 3H-nitrendipine 0.1 nM, rat brain cortex membranes, pH 7.4, 25° C., 60 min
Procedure: Their calcium-antagonistic activity can be shown in the biochemical test model of displacement of tritium-labeled nitrendipine.
This entails membrane preparations which contain isolated calcium channels being loaded with labeled substance.
After incubation with the test substance, the radioactivity which has been released into the supernatant solution is determined. […] The compounds of the formula I are likewise very active in other test models with which a calcium-antagonistic action can be detected, for example the coronary blood flow in the isolated guinea pig heart, or the action potential of the isolated guinea pig papillary muscle.
The test of the activity of substances in the ^3 H-nitrendipine binding test was carried out in a membrane preparation obtained from the cortex of the rat brain and washed several times, the method used essentially being that described by R.J. Gould et al. (Proc. Natl. Acad. Sci. USA 79, 3656 [1982]). The membrane suspension was diluted 1:1500 with TRIS buffer pH 7.4 (50 mM TRIS.HCl, 150 mM NaCl, 1.0 mM CaCl2 and 0.001% by weight, based on TRIS.HCl, NaCl and CaCl2 in solution, of a neutral surface-active substance such as, for example, Genapol^(R)) was incubated in 5 ml portions with ^3 H-nitrendipine (0.1 nM in the test, specific activity 81.3 Ci/mmol) in a shaking water bath at 25° C. for 60 min. The membrane fractions were removed by vacuum filtration through Whatman GF/F glass fiber filters, and the radioactivity was measured in a liquid scintillation counter. The unspecific ^3 H-nitrendipine binding was determined in the presence of 1 μM nifedipine.

Row | Structure (SMILES) | IC50 [nM]
1 | COc1ccc(CCN(C)CCCCOc2ccccc2C2(Cc3ccccc3)C(=O)N(C)c3ccccc32)cc1OC (stereo not shown) [Example 1, 3-Benzyl-3-[2-(4-(N-(2-(3,4-dimethoxyphenyl)ethyl)-N-methylamino)butoxy)phenyl]-1-methylindolin-2-one hydrochloride] | 8000
2 | COc1ccc(CCN(C)CCCCOc2ccccc2C2(C(C)C)C(=O)N(C)c3ccccc32)cc1OC (stereo not shown) [Example 3, 3-[2-(4-(N-(2-(3,4-dimethoxyphenyl)ethyl)-N-methylamino)butoxy)-phenyl]-3-isopropyl-1-methylindolin-2-one hydrochloride] | 22
3 | CC(C)C1(c2ccccc2OCCCCN2CCN(CCCC(c3ccc(F)cc3)c3ccc(F)cc3)CC2)C(=O)N(C)c2ccccc21 (stereo not shown) [Example 5, 3-[2-(4-(4-(4-bis(4-fluorophenyl)butyl)-1-piperazinyl)butoxy)phenyl]-3-isopropyl-1-methylindolin-2-one dihydrochloride] | 13
4 | COc1cc(CN2CCN(CCCCOc3ccccc3C3(C(C)C)C(=O)N(C)c4ccccc43)CC2)cc(OC)c1OC (stereo not shown) [Example 6, 3-Isopropyl-1-methyl-3-[2-(4-(4-(3,4,5-trimethoxybenzyl)-1-piperazinyl)butoxy)phenyl)indolin-2-one dichydrochloride] | 44
